The values that follow come from patent publication US20150045610A1, “METHOD OF MODIFYING SPERMATOGENESIS, SPERMIOGENESIS AND/OR FERTILITY IN MAMMALS” (Monell Chemical Senses Center, priority 2012, published 2015).

This test has as its target T1, humanized mhT1R3 (Homo sapiens, UniProt Q7RTX0, A109T/A120V/A176D/A197V/A198V/A228S/A231N/A248T/A280V/A282S/A302S/A412V/A417V/A46T/A537T/C375D/D124S/D249S/D250G/D364H/D419E/D470T/D491G/D88A/DEL352-352/DEL488-489/E172D/E199T/E203N/E217D/E356N/E45S/E481Q/E505D/E525K/E545Q/F540P/F555L/G168S/G205S/G311T/G314N/G355L/G360D/G414H/G438R/G439D/G463S/G50T/G542N/H261R/H278R/H281Y/H332P/I485M/I536F/INS376MLQNLSSG/K32Q/K339E/K422L/K494V/K86G/L173R/L245Q/L272V/L29F/L354S/L385Q/L433M/L458M/L483S/L71F/L74M/M151L/M315I/M318V/M31A/N285S/N386L/N532H/N68L/P112S/P246H/P335S/P416H/P420H/P441T/P60I/Q221E/Q257L/Q317R/Q330L/Q336H/Q359L/Q372R/Q418S/Q504K/Q531K/R123Q/R247D/R252Q/R291G/R30K/R357A/R443Q/R467V/R473T/R479Q/R482Q/R486Y/R498Q/R52N/R550K/R553A/R556P/R560K/R56Q/S251Q/S267K/S289H/S290H/S392A/S446A/S447E/S464P/S477T/S490P/S53Q/S559P/S58N/S67P/T195Q/T346A/T377L/T390I/T434S/T480L/T63N/V152I/V277A/V366M/V36I/V381L/V393T/V437A/V465T/V61P/W72L).
T1 construct: the extracellular domain is of mouse origin and the transmembrane and intracellular domains of human origin; mouse T1R3 extracellular domain (fusion partner replacing the human extracellular domain); expressed in transfected cells; host or cells: transgenic Line 7c mice (T1R3-/-, Gus-/-, mhT1R3+/-)
T1 sequence (Q7RTX0 with tags, fused parts or gaps L29F/R30K/M31A/K32Q/V36I/E45S/A46T/G50T/R52N/S53Q/R56Q/S58N/P60I/V61P/T63N/S67P/N68L/L71F/W72L/L74M/K86G/D88A/A109T/P112S/A120V/R123Q/D124S/M151L/V152I/G168S/E172D/L173R/A176D/T195Q/A197V/A198V/E199T/E203N/G205S/E217D/Q221E/A228S/A231N/L245Q/P246H/R247D/A248T/D249S/D250G/S251Q/R252Q/Q257L/H261R/S267K/L272V/V277A/H278R/A280V/H281Y/A282S/N285S/S289H/S290H/R291G/A302S/G311T/G314N/M315I/Q317R/M318V/Q330L/H332P/P335S/Q336H/K339E/T346A/DEL352-352/L354S/G355L/E356N/R357A/Q359L/G360D/D364H/V366M/Q372R/C375D/INS376MLQNLSSG/T377L/V381L/L385Q/N386L/T390I/S392A/V393T/A412V/G414H/P416H/A417V/Q418S/D419E/P420H/K422L/L433M/T434S/V437A/G438R/G439D/P441T/R443Q/S446A/S447E/L458M/G463S/S464P/V465T/R467V/D470T/R473T/S477T/R479Q/T480L/E481Q/R482Q/L483S/I485M/R486Y/DEL488-489/S490P/D491G/K494V/R498Q/Q504K/E505D/E525K/Q531K/N532H/I536F/A537T/F540P/G542N/E545Q/R550K/R553A/F555L/R556P/S559P/R560K limits assumed): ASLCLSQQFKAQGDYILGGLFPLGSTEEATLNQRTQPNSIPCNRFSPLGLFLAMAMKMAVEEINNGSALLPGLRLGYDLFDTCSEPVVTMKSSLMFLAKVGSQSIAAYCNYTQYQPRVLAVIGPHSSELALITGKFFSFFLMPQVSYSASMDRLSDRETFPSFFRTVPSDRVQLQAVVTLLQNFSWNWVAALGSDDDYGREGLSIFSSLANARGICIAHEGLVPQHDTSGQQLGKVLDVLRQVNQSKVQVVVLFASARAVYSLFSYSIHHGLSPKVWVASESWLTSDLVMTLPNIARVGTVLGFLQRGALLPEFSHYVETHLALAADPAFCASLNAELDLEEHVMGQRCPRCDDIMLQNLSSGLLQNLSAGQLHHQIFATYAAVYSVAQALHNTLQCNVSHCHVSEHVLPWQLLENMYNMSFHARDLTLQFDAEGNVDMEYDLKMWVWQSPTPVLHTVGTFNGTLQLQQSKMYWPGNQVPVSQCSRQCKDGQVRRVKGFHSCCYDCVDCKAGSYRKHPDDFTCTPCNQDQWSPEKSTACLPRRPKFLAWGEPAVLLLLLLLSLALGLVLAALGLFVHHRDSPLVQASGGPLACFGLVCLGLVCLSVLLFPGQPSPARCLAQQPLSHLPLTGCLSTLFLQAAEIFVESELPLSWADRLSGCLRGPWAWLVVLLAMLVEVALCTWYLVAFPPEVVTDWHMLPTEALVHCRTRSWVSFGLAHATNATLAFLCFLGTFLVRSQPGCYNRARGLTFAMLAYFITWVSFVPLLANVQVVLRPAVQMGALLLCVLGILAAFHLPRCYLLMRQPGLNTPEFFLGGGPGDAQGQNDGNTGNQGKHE
Kind of test: T1R3 pharmacological block with clofibrate diet (male reproduction). The class given is in vivo, mouse. Conditions: line 7c males on clofibrate diet, mated with WT females. As to the method: Matched groups (six males each) of WT and line 7c mice (expressing the chimerical mhT1R3 transgene on a T1R3/α-gustducin double-null background), 3-6 months old, were fed the indicated diets for 4-6 weeks. Each genotype was tested in two groups, one on the regular diet and one on a test diet with clofibrate. An additional group of males stayed on the test diet for another 4-6 weeks, during which time they were mated with WT females to determine whether the pharmacological intervention was effective. Then the animals were allowed to recover on the regular diet for an additional 4 weeks after the end of the treatment (half-time for total sperm turnover in mice), and again were tested for their reproductive capacity, and then their tissues were analyzed. […]
We observed spermatozoa after clofibrate treatment represent cells that were able to escape the inhibition of clofibric acid, most likely due to very fast clearance and fluctuating levels in rodents. […] Therefore, we measured sperm concentration as an indicator of efficiency of the pharmacological block and to be able to determine the concentration that results in effective sterility. We analyzed testicular morphology, sperm production, sperm motility and sperm function in in vitro fertilization after feeding these animals with the lipid lowering drug clofibrate. […]

SMILES strings stand for the structures.

For the compound `CC(C)(Oc1ccc(Cl)cc1)C(=O)O` [clofibric acid], the male fertility entry is recorded as “significantly affected male fertility”.
